From patent EP0346791B1, “1,2-diarylethylamines for treatment of neurotoxic injury” (priority 1988, dated 1989)
Like-named read-outs stand apart in the source and are kept apart here.

Assays:
Male Sprague-Dawley rats = experiment: Behavioral assay (stereotyped behavior, PCP rating scale); format: in vivo; conditions: 95% confidence intervals in parenthesis; for ED50: Rattus norvegicus
Method: Nine compounds were tested in comparison with PCP and TCP by an in vivo assay which determined stereotypic behavior in rats treated with the compounds. Male Sprague-Dawley rats weighing 200 to 250 g were used in the behavioral experiments. Each rat was used only once. Rats were anesthetized lightly with ether before a 20-gauge needle was used to make a hole in the rat's skull for i.c.v. injection of drugs at a later date. These rats were allowed to recover for at least 1 day before being used in the behavioral assays. On the day of the experiment, rats were placed individually into plastic rat cages and allowed at least 1 hr to acclimate before testing. Drugs were administered to rats in a random, single-blind fashion.
Dose-response curves for each treatment were determined at the time of maximal behavioral effect. Peak effects were found 5 min after i.c.v. administration of PCP (25-20000 nmol/rat). […] A rating of 5 in the PCP-rating scale was considered as complete stereotyped behavior, that is, a 100% response. At least 21 rats (at least seven rats/dose) were used to determine each dose-response curve and ED₅₀ values. ED₅₀ values and dose-response curves were evaluated using a computerized Finney assay [Statistical Methods In Biological Assays, 2nd Edn., Hatner Pub. Co., New York (1964)].
The ability of the tested compounds to induce stereotyped behavior was assessed at 2.5, 5 and 10 minutes and thereafter every 5 min up to 1 hr after i.c.v., i.p., or s.c. administration.

Male Mongolian gerbils = experiment: Forebrain ischemia assay (carotid occlusion, CA1 cell loss); format: in vivo; conditions: 30 mg/kg i.p. 30 minutes prior to carotid occlusion; 7 days; vs saline injected gerbils; Mann-Whitney U test p<0.01
Method: Male Mongolian gerbils, 50-70 gm, were used as subjects. Compound No. 1 (30 mg/kg) was injected i.p. 30 minutes prior to carotid occlusion into 6 gerbils. In preparation for surgical procedures, the animals were lightly anesthetized with methoxyflurane and placed upside down on a heated pad with their snout within a nosecone. Nitrous oxide (70%): oxygen (30%) plus 0.5% halothane was circulated through the nosecone to provide continuous anesthesia throughout the surgical procedure. A midline incision was made in the neck and the carotid arteries were exposed. A length of suture thread was placed under each carotid. The thread was then tightened around each carotid and pressure applied to the thread to insure flow was occluded. Flow was occluded for 4-5 minutes and then the thread was removed. The carotids were visually inspected to confirm that reflow had occurred. The wound was then closed with autoclips and the gerbils allowed to recover. Following surgery, the gerbils were kept alive for 7 days. They were anesthetized with 100 mg/kg sodium pentobarbital and perfused transcardially with saline (with heparin) followed by buffered formalin. The brain was removed, trimmed and prepared for histological processing. Sections (10 microns) were stained with thionin. […]

hippocampal neurons [1] = experiment: Chronic hypoxic insult assay (MTT neuronal survival); format: cell-based, Sprague-Dawley rats; conditions: for Optical Density: 6 hours anaerobic chamber, then 2 hours normal O2, MTT 570 nm, ± SEM, untreated control 0.058, hypoxia alone 0.020; for Maximum protection of neurons from hypoxic insult was obtained with: concentration giving maximum protection
Method: Compound Nos. 4 and 5 were tested for their ability to protect hippocampal neurons from hypoxia-induced cell death. Cultures of hippocampal neurons were prepared from embryonic day 17 Sprague-Dawley rats. The hippocampi were dissociated into a single cell suspension by incubation with 0.25% trypsin, […] DNase followed by gentle trituration through a Pasteur pipet. The cells were plated in a polylysine-coated 96-well plate and maintained in a chemically defined medium until use. The cells were grown for 2 to 3 weeks in 5% CO₂-in-air humidified environment at 36°C to establish a thick network of neuronal processes with numerous spontaneously active synapses. Exposure to hypoxic/anoxic environment was accomplished by placing the cultures in an anaerobic chamber, and flushing it with a mixture of 95% N₂+ 5% CO₂ gas to rapidly drop the O₂ tension to near zero. The O₂ tension was maintained at near zero using a disposable H₂ + CO₂ generator envelope with palladium catalyst. Compound No. 4 and Compound No. 5 were added to the culture medium prior to incubation in the anaerobic chamber and maintained there for 6 hours. Following 2 hours of exposure to normal O₂ tension, the cultures were processed for morphological and quantitive biochemical neuronal cell viability assays.
The neuronal survival assay utilized the compound MTT [(3-(4,5-dimethylthiazol-2-yl)-2,5-diphenyl tetrazolium bromide)], a pale yellow substrate that is cleaved by the mitochondrial enzyme succinate-dehydrogenase to yield a dark blue formazan product. This process requires active mitochondria, present only in live cells. Cultures of hippocampal neurons grown in 96-well plates were incubated with 1 mg/ml MTT at 36°C in a 10% CO₂-in-air incubator for 30-60 min. At the end of the incubation, a dark blue precipitate outlined only viable cells. The precipitate was then solubilized using 0.08 N HCl/isopropanol mixture and the absorbance measured with an ELISA plate reader (Dynatech MR600) using a test wavelength of 570 nm and a reference wavelength of 630 nm. The resulting optical density is directly proportional to the number of viable cells.

PCP receptors = format: binding; conditions: 1 nM 3H-TCP, whole rat brain membranes, 1 hour incubation; value ± SEM; read-out: Ki apparent
hippocampal neurons [2] = experiment: Acute azide toxicity assay (MTT neuronal survival); format: cell-based, Sprague-Dawley rats; conditions: 10 µM sodium azide for 1 hour
[3] = ip, read-out: Stereotyped Behavior ED₅₀ i.p.
[4] = sc, read-out: Stereotyped Behavior ED₅₀ s.c.

c1ccc(CC(c2ccccc2)N2CCCCC2)cc1 (racemic) [Compound No. 1]
ED50 (Male Sprague-Dawley rats; [3]): 2 mg/kg
ED50 (Male Sprague-Dawley rats; [4]): 2.9 mg/kg
cell loss in CA1 (Male Mongolian gerbils): significantly reduced

c1ccc(CC(c2cccs2)N2CCCCC2)cc1 (racemic) [Compound No. 5]
ED50 (Male Sprague-Dawley rats; [4]): 3.5 mg/kg
Optical Density (hippocampal neurons [1]; Hypoxia + 10 µM compound): 0.047 ± 0.01
Maximum protection of neurons from hypoxic insult was obtained with (hippocampal neurons [1]): 10 µM

C1=CCN(C(Cc2ccccc2)c2ccccc2)CC1 (racemic) [Compound No. 6]
Stereotyped Behavior ED₅₀ i.c.v. (Male Sprague-Dawley rats): 100(81-120) nmoles/rat

CC(C)C(c1ccccc1)C(c1ccccc1)N1CCCCC1 (racemic) [Compound No. 12]
ED50 (Male Sprague-Dawley rats; [4]): > 50 mg/kg

OC(c1ccccc1)C(c1ccccc1)N1CCCCC1 (racemic) [Compound No. 13]
ED50 (Male Sprague-Dawley rats; [4]): 11 mg/kg

C1=CCN(C(Cc2ccccc2)c2cccs2)CC1 (racemic) [Compound No. 15]
ED50 (Male Sprague-Dawley rats; [4]): 1.7 mg/kg

c1ccc(CC(c2ccccc2)N2CCCC2)cc1 (racemic) [Compound No. 20]
ED50 (Male Sprague-Dawley rats; [4]): 7.8 mg/kg
Ki (PCP receptors): 16000 ± 2600 nM

Cc1ccc(C(Cc2ccccc2)N2CCCCC2)cc1 (racemic) [Compound No. 21]
Ki (PCP receptors): 1800 ± 300 nM

COc1ccc(C(Cc2ccccc2)N2CCCCC2)cc1 (racemic) [Compound No. 22]
Ki (PCP receptors): 8100 ± 500 nM

c1ccc(C(N2CCCCC2)C2(c3ccccc3)CC2)cc1 (racemic) [Compound No. 23]
Ki (PCP receptors): > 30000 nM

CC1CC(C)CN(C(Cc2ccccc2)c2ccccc2)C1 (racemic) [Compound No. 24]
Ki (PCP receptors): 850 ± 40 nM

CC(C)(c1ccccc1)C(c1cccs1)N1CCCCC1 (racemic) [Compound No. 25]
Ki (PCP receptors): > 30000 nM

COc1cccc(C(Cc2ccccc2)N2CCCCC2)c1 (racemic) [Compound No. 26]
Ki (PCP receptors): 100 ± 20 nM

Fc1ccc(C(Cc2ccccc2)N2CCCCC2)cc1 (racemic) [Compound No. 27]
Ki (PCP receptors): 220 ± 10 nM

CC(C)(c1ccccc1)C(c1ccccc1)N1CCCCC1 (racemic) [Compound No. 28]
Ki (PCP receptors): 12000 ± 1000 nM

Cc1cccc(C(Cc2ccccc2)N2CCCCC2)c1 (racemic) [Compound No. 29]
Ki (PCP receptors): 110 ± 30 nM

c1ccc(CC(c2ccco2)N2CCCCC2)cc1 (racemic) [Compound No. 30]
Ki (PCP receptors): 400 ± 10 nM

Clc1ccccc1C(Cc1ccccc1)N1CCCCC1 (racemic) [Compound No. 31]
Ki (PCP receptors): 0.19 ± 0.11 nM

COc1ccccc1C(Cc1ccccc1)N1CCCCC1 (racemic) [Compound No. 32]
Ki (PCP receptors): 170 ± 10 nM

c1ccc(CC(c2cccc3ccccc23)N2CCCCC2)cc1 (racemic) [Compound No. 33]
Ki (PCP receptors): 6000 ± 1700 nM

c1ccc(CC(c2ccccc2)N2CCCCC2)cc1 (single isomer, unassigned) [Compound No. 3]
Stereotyped Behavior ED₅₀ s.c. (Male Sprague-Dawley rats): >40 mg/kg

c1ccc(CC(c2ccccc2)N2CCCCC2)cc1 (single isomer, unassigned) [Compound No. 4]
ED50 (Male Sprague-Dawley rats; [3]): 2.1 mg/kg
Stereotyped Behavior ED₅₀ i.c.v. (Male Sprague-Dawley rats): 120(100-140) nmoles/rat
Stereotyped Behavior ED₅₀ s.c. (Male Sprague-Dawley rats): 0.78(0.60-1.0) mg/kg
Optical Density (hippocampal neurons [1]; Hypoxia + 1 µM compound): 0.046 ± 0.01
Maximum protection of neurons from hypoxic insult was obtained with (hippocampal neurons [1]): 1 µM
protection of neurons from sodium azide toxicity (hippocampal neurons [2]; 100 µM compound): significant protection
Optical Density (hippocampal neurons [2]; Sodium azide + 100 µM compound, MTT, ± SEM, control 0.123, sodium azide alone 0.075): 0.133 ± 0.01

c1ccc(C2(N3CCCCC3)CCCCC2)cc1 [PCP, Phencyclidine, reference compound]
Stereotyped Behavior ED₅₀ i.c.v. (Male Sprague-Dawley rats): 150(120-170) nmoles/rat
